Source: US20180105793A1, “DEVICE WITH MULTIPLE MICROENVIRONMENTS AND METHODS THEREOF” (WASHINGTON UNIVERSITY, priority 2016, published 2018)
Entries after “also recorded” stand apart in the source; their conditions may differ.

Columns and labels:
MCF10A cells [1] = assay: Immunofluorescent staining for E-cadherin (cell-cell junctions); type: cell-based, Human; conditions: 4 mM EGTA vs untreated
MCF10A cells [2] = assay: Collective cell migration assay on modular polyacrylamide (mPA) dual-stiffness substrate; type: cell-based, Human
Description: Human mammary epithelial non-tumorigenic MCF10A cells were cultured in DMEM-F12 (GE Healthcare Life Sciences), supplemented with 5% horse serum (Invitrogen), 20 ng/mL epidermal growth factor (EGF, Miltenyi Biotec Inc), […] hydrocortisone (Sigma-Aldrich), 100 ng/mL cholera toxin (Sigma-Aldrich), 10 μg/mL insulin (Sigma-Aldrich), and 1% (v/v) penicillin-streptomycin (Sigma-Aldrich). Tumorigenic mammary epithelial MCF7 cells were grown in DMEM (Sigma-Aldrich) containing 10% fetal bovine serum (FBS), 1% (v/v) penicillin-streptomycin (Sigma-Aldrich), and 1% non-essential amino acids (0.1 mM). Human epidermoid carcinoma A431 cells were grown in DMEM (Sigma-Aldrich) containing 10% fetal bovine serum (FBS), 1% (v/v) penicillin-streptomycin (Sigma-Aldrich), 1% sodium pyruvate (Sigma-Aldrich), 1% sodium bicarbonate (Sigma-Aldrich), and 1% non-essential amino acids (0.1 mM). A PDMS stencil was designed and fabricated with a rectangular opening in the center, restricting the culture of epithelial monolayer within the central module (primary ECM) of mPA substrate (see e.g., FIG. 13A). PDMS stencils were air-dried, cleaned with 70% ethanol, and sterilized under UV light for 2 h. Afterwards, stencils were passivated overnight, with a sterile solution of 1% Pluronic and 1% Bovine serum albumin (BSA) in Phosphate buffered saline (PBS) to avoid cell adhesion, and carefully positioned on the PA gels. Cell suspension with 2×10^4 cells was dispensed into the PDMS reservoir covering the primary ECM region and left to grow for a prescribed duration of priming (1, 2, or 3 days) at 37° C. in a 5% CO2 humidified incubator. After this incubation period, the PDMS stencil was lifted off to allow cell sheet to migrate into the adjoining secondary ECM. Additional media was added to each well. For proliferation inhibition experiments, cells were treated with 2 mM thymidine (Sigma-Aldrich) after at least 6 h of cell seeding, to allow adequate attachment of cells to the substrate. For calcium chelation experiments, cells were incubated with 4 mM of EGTA (Sigma-Aldrich) after 3-day priming. […] Subsequently, coordinates of the leading edge were imported into a custom-made program in MATLAB and its advancement was calculated by averaging the distance of each point on the leading edge from the primary-secondary ECM interface. […] Cell migration tracks were subsequently analyzed to obtain migration speed and velocity angle distribution. Migration speed was calculated as a ratio between the sum of distances traveled by the cell between each time point and the total time. For each time interval, the angle between instantaneous velocity vector and the x axis was calculated and plotted the angle distribution for the entire migration tracking period.

Row | Structure (SMILES) | cell-cell communication / cell-cell junctions (E-cadherin images) (MCF10A cells [1]) | memory-dependent migration of the leading edge (MCF10A cells [2]; MCF10A monolayer, 4 mM EGTA after 3-day priming) | trend of mechanical memory-dependent migration (MCF10A cells [2]; MCF10A monolayer, 2 mM thymidine (proliferation inhibition)) | cell migration speeds (leading edge) (MCF10A cells [2]; MCF10A monolayer, 2 mM thymidine (proliferation inhibition), secondary ECM after priming, vs untreated cells) | cell spreading (spreading area of individual cells in the secondary ECM) (MCF10A cells [2]; MCF10A, 2 mM thymidine, with vs without proliferation inhibition)
1 | O=C(O)CN(CCOCCOCCN(CC(=O)O)CC(=O)O)CC(=O)O [EGTA] | disrupts cell-cell communication; also recorded: dysfunctional cell-cell junctions | preserved |  |  | 
2 | Cc1cn([C@H]2C[C@H](O)[C@@H](CO)O2)c(=O)[nH]c1=O [thymidine] |  |  | held true | increased | increased spreading
